Measurements reported in paper PMC6268492, “Synthesis and Antiangiogenic Activity of Novel Gambogic Acid Derivatives” (Molecules, 2012).
Where two headings read alike, the source gives them in different places.

Legend:
HUVEC = assay: MTT assay, cell proliferation; assay type: cell-based, Human; conditions: 24 h, read-out: IC50, inhibition of cell proliferation
Protocol: Inhibiting the proliferation of ECs is another important strategy for antiangiogenesis. […] As the exposure time of these derivatives was 24 h in the migration assay and 6 h in the tube formation assay, the effect of the incubation for 24 h in the presence of these compounds on HUVECs proliferation was then tested. Cell viability was assessed by the MTT method. We can see from Table 4 that these compounds had different antiproliferative activities.
(§1) HepG2, HCT116, HeLa and LO2 cell lines were cultured in DMEM containing 10% fetal bovine serum (FBS), 100 IU/mL penicillin and 100 µg/mL streptomycin; A549 and K562 cell lines were cultured in RPMI 1640 medium containing 10% fetal bovine serum (FBS), 100 IU/mL penicillin and 100 µg/mL streptomycin; Human umbilical vein endothelial cells (HUVECs) were cultured on gelatin-coated culture flasks in M-199 medium with 20% fetal bovine serum (FBS), 2 ng/mL VEGF, 10 ng/mL basic FGF, 100 IU/mL penicillin, and 100 μg/mL streptomycin; all of them were obtained from the American Type Culture Collection (ATCC) and all cell lines were incubated in an atmosphere of 5% CO2 at 37 °C.
(§2) Cells were treated with various concentrations of compound in 96-well culture plates for 24 h in final volumes of 200 μL (5 × 10^3 cells/well). Then 20 μL of MTT solution (5 mg/mL) was added to each well, and cells were incubated for an additional 3 h. Then the medium was carefully removed, and precipitates were dissolved in 150 μL of DMSO, shaken mechanically for 30 min, and then absorbance values at a wavelength of 570 nm were taken on a spectrophotometer (Molecular Devices, Sunnyvale, CA, USA). Values were calculated using percentage of growth versus untreated control. The IC50 was defined as the concentration that caused 50% inhibition of cell proliferation, and was calculated by SAS statistical software.

LO2 = assay: MTT assay, cytotoxicity; assay type: cell-based; conditions: read-out: IC50, inhibition of cell proliferation
Protocol: as §1, §2

K562 = assay: MTT assay, cell proliferation; assay type: cell-based; conditions: 24 h, read-out: IC50, inhibition of cell proliferation
Protocol: as §1, §2

HCT116 = assay: MTT assay, cell proliferation; assay type: cell-based; conditions: read-out: IC50, inhibition of cell proliferation
Protocol: as §1, §2

HeLa = assay: MTT assay, cell proliferation; assay type: cell-based; conditions: 24 h, read-out: IC50, inhibition of cell proliferation
Protocol: as §1, §2

A549 = assay: MTT assay, cell proliferation; assay type: cell-based; conditions: 24 h, read-out: IC50, inhibition of cell proliferation
Protocol: as §1, §2

HepG2 = assay: MTT assay, cell proliferation; assay type: cell-based; conditions: 24 h, read-out: IC50, inhibition of cell proliferation
Protocol: as §1, §2

Compound	IC50 (HUVEC) [µM]	IC50 (LO2; 24 h) [µM]	IC50 (K562) [µM]	IC50 (HCT116; 24 h) [µM]	IC50 (HeLa) [µM]	IC50 (A549) [µM]	IC50 (HepG2) [µM]	IC50 (HUVEC; Homo sapiens) [µM]	IC50 (LO2; Homo sapiens, L02, 24 h) [µM]	IC50 (K562; Homo sapiens) [µM]	IC50 (HCT116; Homo sapiens, HCT-116, 24 h) [µM]	IC50 (HeLa; Homo sapiens) [µM]	IC50 (A549; Homo sapiens) [µM]	IC50 (HepG2; Homo sapiens) [µM]
3-Ethanonephenyl gambogate [Compound 11]	3.48 ± 0.18	3.94 ± 0.19	2.09 ± 0.19	3.13 ± 0.3	3.31 ± 0.24	3.31 ± 0.45	3.64 ± 0.53							
CC(C)=CCCC1(C)C=Cc2c(O)c3c(c(CC=C(C)C)c2O1)OC12C(=CC4CC1C(C)(C)OC2(C/C=C(/C)C(=O)Oc1cccc(C=O)c1)C4=O)C3=O (stereo not drawn) [Compound 15, 3-Formylphenyl gambogate]								13.6 ± 1.16	14.8 ± 1.19	6.11 ± 0.39	6.8 ± 0.78	62.6 ± 3.12	33 ± 1.5	10.85 ± 0.06
CC(C)=CCCC1(C)C=Cc2c(O)c3c(c(CC=C(C)C)c2O1)OC12C(=CC4CC1C(C)(C)OC2(C/C=C(/C)C(=O)Oc1ccccc1Br)C4=O)C3=O (stereo not drawn) [Compound 17, 2-Bromophenyl gambogate]								29.9 ± 1.44	72.8 ± 2.84	27 ± 1.41	33 ± 1.27	> 80	> 80	61.9 ± 2.69
CC(=O)Nc1ccc(SC(=O)/C(C)=C\CC23OC(C)(C)C4CC(C=C5C(=O)c6c(O)c7c(c(CC=C(C)C)c6OC542)OC(C)(CCC=C(C)C)C=C7)C3=O)cc1 (stereo not drawn) [Compound 30, 4-Acetamidophenyl gambogthioate]								1.03 ± 0.07	2.84 ± 0.34	0.44 ± 0.02	1.33 ± 0.07	3.43 ± 0.28	1.24 ± 0.09	1.72 ± 0.03
CC(C)=CCCC1(C)C=Cc2c(O)c3c(c(CC=C(C)C)c2O1)OC12C(=CC4CC1C(C)(C)OC2(C/C=C(/C)C(=O)Oc1ccc(C(C)(C)CC(C)(C)C)cc1)C4=O)C3=O (stereo not drawn) [Compound 25, 4-(2,4,4-Trimethylpentan-2-yl)phenyl gambogate]								> 80	> 80	> 80	> 80	> 80	> 80	> 80
CC(C)=CCCC1(C)C=Cc2c(O)c3c(c(CC=C(C)C)c2O1)OC12C(=CC4CC1C(C)(C)OC2(C/C=C(/C)C(=O)Oc1ccc(Br)c(F)c1F)C4=O)C3=O (stereo not drawn) [Compound 24, 4-Bromo-2,3-difluorophenyl gambogate]								> 80	> 80	> 80	> 80	> 80	> 80	> 80
CC(C)=CCCC1(C)C=Cc2c(O)c3c(c(CC=C(C)C)c2O1)OC12C(=CC4CC1C(C)(C)OC2(C/C=C(/C)C(=O)Oc1c(Br)ccc(F)c1F)C4=O)C3=O (stereo not drawn) [Compound 2, 6-Bromo-2,3-difluorophenyl gambogate]								31.9 ± 1.27		16.1 ± 1.74	45.3 ± 4.2	57 ± 0.62	49.1 ± 5.16	41.4 ± 3.52
CC(C)=CCC/C(C)=C/COC(=O)/C(C)=C\CC12OC(C)(C)C3CC(C=C4C(=O)c5c(O)c6c(c(CC=C(C)C)c5OC431)OC(C)(CCC=C(C)C)C=C6)C2=O (stereo not drawn) [Compound 10, Geraniol gambogate]								> 80		> 80	> 80	> 80	> 80	> 80
C=CCc1ccc(OC(=O)/C(C)=C\CC23OC(C)(C)C4CC(C=C5C(=O)c6c(O)c7c(c(CC=C(C)C)c6OC542)OC(C)(CCC=C(C)C)C=C7)C3=O)c(OC)c1 (stereo not drawn) [Compound 3, 4-Allyl-2-methoxyphenyl gambogate]								52.7 ± 1.15		8.18 ± 1.22	18.7 ± 0.97	13.1 ± 0.77	38 ± 3.1	28.8 ± 2.84
COc1ccc(OC(=O)/C(C)=C\CC23OC(C)(C)C4CC(C=C5C(=O)c6c(O)c7c(c(CC=C(C)C)c6OC542)OC(C)(CCC=C(C)C)C=C7)C3=O)cc1 (stereo not drawn) [Compound 13, 4-Methoxyphenyl gambogate]								27.7 ± 2.77		8.05 ± 0.28	17.5 ± 1.59	> 80	66.8 ± 4.59	60.5 ± 4.24
